Test results from patent US20170340588A1, “MODULATION OF REGULATORY T CELLS VIA G-COUPLED PROTEIN RECEPTOR 43” (President and Fellows of Harvard College, priority 2013, published 2017).

What was measured:
colonic Treg (cTreg) [1] = test: Antibiotic (vancomycin) treatment of SPF mice with or without SCFA; format: in vivo; conditions: Ffar2-/- vs Ffar2+/+ mice
Protocol: Science 341: 1645 (2013). […] The crude cell suspension was loaded onto a 40%/90% Percoll (GE Healthcare) gradient and centrifuged at 720 x g for 25 min at room temperature with acceleration and brake turned off. LP lymphocytes were collected from the 40%/90% interface. Intracellular staining of the transcription factors Foxp3, Helios and T-bet was performed using the Foxp3 Fix/Perm Buffer Set (Biolegend). For detection of intracellular cytokines, cells were first stimulated for 4 h with 50 ng/ml PMA and 1 μg/ml ionomycin in the presence of Brefeldin A (All obtained from Sigma), followed by staining for surface markers. Cells were then fixed and permeabilized using the Foxp3 Fix/Perm Buffer Set (Biolegend) and stained for intracellular cytokines. The following antibodies were used: […] All antibodies were obtained from Biolegend unless otherwise noted. Flow cytometry was performed using LSRII and data were analyzed with FlowJo software (TreeStar, Inc.). Cell sorting was performed using a […] at the Dana-Farber Cancer Institute Flow Cytometry Core.

colonic Treg (cTreg) [2] = test: SPF SCFA intervention; flow cytometry of lymphocytes; format: in vivo, mice
Protocol: To isolate LP lymphocytes, small and large intestines were collected and opened longitudinally and washed with PBS to remove fecal contents. To remove epithelial cells, mucus and fat tissue, intestines were incubated 2 times in EDTA (5 mM)/DTT (1 mM)/Dulbecco's PBS (calcium and magnesium-free) solution (5 ml/colon) for 25 min at 37° C. Intestines were then minced and collagenase-digested two times for 45 min at 37° C. in RPMI containing 1 mg/ml collagenase type VIII (SIGMA), 25 μg/ml DNase I (Roche), 50 μg/ml Dispase (StemCell Technologies) and 0.01M HEPES (StemCell Technologies). The crude cell suspension was loaded onto a 40%/90% Percoll (GE Healthcare) gradient and centrifuged at 720 x g for 25 min at room temperature with acceleration and brake turned off. LP lymphocytes were collected from the 40%/90% interface.
Intracellular staining of the transcription factors Foxp3, Helios and T-bet was performed using the Foxp3 Fix/Perm Buffer Set (Biolegend). For detection of intracellular cytokines, cells were first stimulated for 4 h with 50 ng/ml PMA and 1 μg/ml ionomycin in the presence of Brefeldin A (All obtained from Sigma), followed by staining for surface markers. Cells were then fixed and permeabilized using the Foxp3 Fix/Perm Buffer Set (Biolegend) and stained for intracellular cytokines. The following antibodies were used: PE-labeled anti-Foxp3 (FJK-16s, eBioscience), Pacific Blue-labeled anti-Helios (22F6), PE-, FITC- or APC-labeled anti-CD4 (RM4-5), PECy7-labeled anti-CD3 (145-2C11), PE- or APC-labeled anti-IL-10 (JES5-16E3), PerCP-Cy5.5-labeled anti-IL-17 (TC11-18H10.1), APC- or PE-Cy7-labeled anti-IFNγ (XMG1.2), Pacific Blue-labeled anti-TGFβ1 (TW7-16B4), FITC-, PerCP-Cy5.5 or Pacific Blue-labeled anti-CD45 (30-F11), PerCP-Cy5.5 anti-CD45RB (C363-16A), PE- or FITC-labeled anti-CD25 (PC61), Brilliant Violet 421-labeled anti-CD127 (A7R34), GPR43 rabbit polyclonal (Abcam Catalog *Ab118449, and anti-rabbit IgG DyLight649 (Poly4064). […] Flow cytometry was performed using LSRII and data were analyzed with FlowJo software (TreeStar, Inc.). […]

CCC(=O)O [Propionate, propionic acid]
restoration of cTreg populations and numbers in the setting of vancomycin treatment (colonic Treg (cTreg) [1]): Ffar2 was necessary
percentage and number of cTreg (colonic Treg (cTreg) [2]; Ffar2+/+ control mice): significantly enhanced
percentage and number of cTreg (colonic Treg (cTreg) [2]; Ffar2-/- mice): no effect
small intestinal Treg numbers (colonic Treg (cTreg) [2]; SPF mice, distal ileum lamina propria): does not affect
